Source: patent US10021881B2, “Vaporized administration of pesticides” (priority 2016, dated 2018)

How the values were obtained:
[1] = system: Botrytis cinerea; experiment: In vivo assay of vaporized pyrimethanil to inhibit Botrytis cinerea in blueberries; details: for Gray Mold Severity (0-4): scale 0 no disease to 4 exceptionally high
Text: An in vivo assay was used to evaluate the ability of vaporized pyrimethanil to control pathogenic infection of blueberries by Botrytis cinerea.

[2] = system: Penicillium expansum; experiment: Drenching vs. vaporizing treatments of apples, browning; type: in vivo; details: for Percent (%) Inhibition of Internal Browning: apples stored nine weeks at 1° C.
Procedure: An in vivo assay was used to evaluate the ability of vaporized pyrimethanil to control pathogenic infection of apples by Penicillium expansum as compared to drenching methods of apple treatment. Vaporized treatments of apples were performed as previous described in Examples 1-6, with the exception of using a 1 m wide×1 m high×8 m deep tunnel (see FIG. 11). […] In addition, drenching treatments comprising a final concentration of 125 mg/L, 500 mg/L, and 2000 mg/L of pyrimethanil active ingredient were also prepared. Fruits were stored for nine weeks at 1° C., and evaluated in order to observe and/or determine the area of browning on the fruit (see FIG. 22) and the percent of browning inhibition (see Table 7).

[3] = system: Penicillium expansum; experiment: In vivo assay of vaporized pyrimethanil to inhibit Penicillium expansum in apples
Procedure: An in vivo assay was used to evaluate the ability of vaporized pyrimethanil to control pathogenic infection of apples by Penicillium expansum. […] Each wound was then inoculated with 30 μL of 1×10^6 spores/mL suspension of P. expansum.
Fruits were evaluated in order to observe disease incidence (i.e., browning) and fungal sporulation diameter (both measured in millimeters, mm).

[4] = system: Botrytis cinerea; experiment: In vivo assay of vaporized pyrimethanil to inhibit Botrytis cinerea in grapes; details: for Gray Mold Severity (0-4): scale 0 no disease to 4 exceptionally high
Text: An in vivo assay was used to evaluate the ability of vaporized pyrimethanil to control pathogenic infection of Table grapes by Botrytis cinerea.

[5] = Agriphar Pyrimethanil (ISO) Safety Data Sheet; cited from earlier work
[6] = system: Penicillium digitatum; experiment: In vivo assay of vaporized pyrimethanil to inhibit Penicillium digitatum in oranges
Procedure: An in vivo assay was used to evaluate the ability of vaporized pyrimethanil to control pathogenic infection of oranges by Penicillium digitatum. […] Each wound was then inoculated with 30 μL of 1×10^6 spores/mL suspension of P. digitatum.
Fruits were evaluated in order to observe growth of water-soaked lesions and fungal sporulation diameter (both measured in millimeters, mm).

[7] = 0.01 mg/L, Day 0 (after 3 days at 21° C.)
[8] = 0.01 mg/L, Day 1 (after 3 days at 21° C.)
[9] = 0.01 mg/L, Day 2 (after 3 days at 21° C.)
[10] = 0.01 mg/L, Day 3 (after 3 days at 21° C.)
[11] = 0.03 mg/L, Day 0 (after 3 days at 21° C.)
[12] = 0.03 mg/L, Day 1 (after 3 days at 21° C.)
[13] = 0.03 mg/L, Day 2 (after 3 days at 21° C.)
[14] = 0.03 mg/L, Day 3 (after 3 days at 21° C.)
[15] = 0.1 mg/L, Day 0 (after 3 days at 21° C.)
[16] = 0.1 mg/L, Day 1 (after 3 days at 21° C.)
[17] = 0.1 mg/L, Day 2 (after 3 days at 21° C.)
[18] = 0.1 mg/L, Day 3 (after 3 days at 21° C.)
[19] = 0.3 mg/L, Day 0 (after 3 days at 21° C.)
[20] = 0.3 mg/L, Day 1 (after 3 days at 21° C.)
[21] = 0.3 mg/L, Day 2 (after 3 days at 21° C.)
[22] = 0.3 mg/L, Day 3 (after 3 days at 21° C.)
[23] = 0.04 mg/L, Day 0 (after 3 days at 21° C.)
[24] = 0.04 mg/L, Day 1 (after 3 days at 21° C.)
[25] = 0.04 mg/L, Day 2 (after 3 days at 21° C.)
[26] = 0.04 mg/L, Day 3 (after 3 days at 21° C.)
[27] = 0.2 mg/L, Day 0 (after 3 days at 21° C.)
[28] = 0.2 mg/L, Day 1 (after 3 days at 21° C.)
[29] = 0.2 mg/L, Day 2 (after 3 days at 21° C.)
[30] = 0.2 mg/L, Day 3 (after 3 days at 21° C.)
[31] = 1 mg/L, Day 0 (after 3 days at 21° C.)
[32] = 1 mg/L, Day 1 (after 3 days at 21° C.)
[33] = 1 mg/L, Day 2 (after 3 days at 21° C.)
[34] = 1 mg/L, Day 3 (after 3 days at 21° C.)

## Cc1cc(C)nc(Nc2ccccc2)n1 [pyrimethanil, 4,6-Dimethyl-N-phenylpyrimidin-2-amine]
[1]; [7]
  Gray Mold Incidence (%): 92.6%
  Gray Mold Severity (0-4): 0.9
[1]; [8]
  Gray Mold Incidence (%): 96.3%
  Gray Mold Severity (0-4): 1.1
[1]; [9]
  Gray Mold Incidence (%): 98.8%
  Gray Mold Severity (0-4): 1.4
[1]; [10]
  Gray Mold Incidence (%): 98.8%
  Gray Mold Severity (0-4): 2.1
[1]; [11]
  Gray Mold Incidence (%): 82.7%
  Gray Mold Severity (0-4): 0.7
[1]; [12]
  Gray Mold Incidence (%): 97.5%
  Gray Mold Severity (0-4): 1.1
[1]; [13]
  Gray Mold Incidence (%): 97.5%
  Gray Mold Severity (0-4): 1.3
[1]; [14]
  Gray Mold Incidence (%): 97.5%
  Gray Mold Severity (0-4): 1.7
[1]; [15]
  Gray Mold Incidence (%): 64.2%
  Gray Mold Severity (0-4): 0.5
[1]; [16]
  Gray Mold Incidence (%): 87.8%
  Gray Mold Severity (0-4): 0.9
[1]; [17]
  Gray Mold Incidence (%): 94.8%
  Gray Mold Severity (0-4): 1.1
[1]; [18]
  Gray Mold Incidence (%): 94.6%
  Gray Mold Severity (0-4): 1.7
[1]; [19]
  Gray Mold Incidence (%): 22.2%
  Gray Mold Severity (0-4): 0.2
[1]; [20]
  Gray Mold Incidence (%): 33.8%
  Gray Mold Severity (0-4): 0.2
[1]; [21]
  Gray Mold Incidence (%): 51.2%
  Gray Mold Severity (0-4): 0.3
[1]; [22]
  Gray Mold Incidence (%): 52.0%
  Gray Mold Severity (0-4): 0.3
[2]; DRENCH, Treatment Rate 500 mg/L
  Percent (%) Inhibition of Internal Browning: 47%
[2]; DRENCH, Treatment Rate 2,000 mg/L
  Percent (%) Inhibition of Internal Browning: 69%
[2]; VAPOR, Treatment Rate 0.5 mg/L
  Percent (%) Inhibition of Internal Browning: 96%
[2]; VAPOR, Treatment Rate 2 mg/L
  Percent (%) Inhibition of Internal Browning: 100%
[2]; apples treated in a preventative manner, nine weeks at 1° C., FIG. 22
  area of browning, vaporized compared with drenched: less area (mm) of browning
[3]; [23]
  Browning (mm): 10.6 mm
  Fungal Sporulation (mm): 2.6 mm
[3]; [24]
  Browning (mm): 16.2 mm
  Fungal Sporulation (mm): 2.1 mm
[3]; [25]
  Browning (mm): 23.1 mm
  Fungal Sporulation (mm): 2.8 mm
[3]; [26]
  Browning (mm): 28.8 mm
  Fungal Sporulation (mm): 3.1 mm
[3]; [27]
  Browning (mm): 5.3 mm
  Fungal Sporulation (mm): 0.3 mm
[3]; [28]
  Browning (mm): 8.1 mm
  Fungal Sporulation (mm): 0.8 mm
[3]; [29]
  Browning (mm): 12.7 mm
  Fungal Sporulation (mm): 1.4 mm
[3]; [30]
  Browning (mm): 16.2 mm
  Fungal Sporulation (mm): 2.6 mm
[3]; [31]
  Browning (mm): 3.4 mm
  Fungal Sporulation (mm): 0.1 mm
[3]; [32]
  Browning (mm): 5.6 mm
  Fungal Sporulation (mm): 0.7 mm
[3]; [33]
  Browning (mm): 8.8 mm
  Fungal Sporulation (mm): 0.8 mm
[3]; [34]
  Browning (mm): 11.4 mm
  Fungal Sporulation (mm): 1.6 mm
[4]; [7]
  Gray Mold Incidence (%): 100.0%
  Gray Mold Severity (0-4): 1.6
[4]; [8]
  Gray Mold Incidence (%): 100.0%
  Gray Mold Severity (0-4): 2.0
[4]; [9]
  Gray Mold Incidence (%): 100.0%
  Gray Mold Severity (0-4): 2.0
[4]; [10]
  Gray Mold Incidence (%): 100.0%
  Gray Mold Severity (0-4): 3.6
[4]; [11]
  Gray Mold Incidence (%): 100.0%
  Gray Mold Severity (0-4): 1.4
[4]; [12]
  Gray Mold Incidence (%): 100.0%
  Gray Mold Severity (0-4): 2.0
[4]; [13]
  Gray Mold Incidence (%): 100.0%
  Gray Mold Severity (0-4): 2.0
[4]; [14]
  Gray Mold Incidence (%): 100.0%
  Gray Mold Severity (0-4): 3.4
[4]; [15]
  Gray Mold Incidence (%): 94.4%
  Gray Mold Severity (0-4): 0.5
[4]; [16]
  Gray Mold Incidence (%): 98.1%
  Gray Mold Severity (0-4): 0.7
[4]; [17]
  Gray Mold Incidence (%): 98.1%
  Gray Mold Severity (0-4): 1.1
[4]; [18]
  Gray Mold Incidence (%): 98.1%
  Gray Mold Severity (0-4): 1.8
[4]; [19]
  Gray Mold Incidence (%): 16.7%
  Gray Mold Severity (0-4): 0.1
[4]; [20]
  Gray Mold Incidence (%): 94.4%
  Gray Mold Severity (0-4): 0.5
[4]; [21]
  Gray Mold Incidence (%): 94.4%
  Gray Mold Severity (0-4): 0.8
[4]; [22]
  Gray Mold Incidence (%): 100.0%
  Gray Mold Severity (0-4): 1.3
[5]
  known thermal decomposition range: 189.54-344.74 °C
[6]; [23]
  Fungal Sporulation (mm): 1.1 mm
  Water soaked Lesion (mm): 0.0 mm
[6]; [24]
  Fungal Sporulation (mm): 1.4 mm
  Water soaked Lesion (mm): 0.0 mm
[6]; [25]
  Fungal Sporulation (mm): 2.1 mm
  Water soaked Lesion (mm): 0.0 mm
[6]; [27]
  Fungal Sporulation (mm): 0.6 mm
  Water soaked Lesion (mm): 0.0 mm
[6]; [28]
  Fungal Sporulation (mm): 0.8 mm
  Water soaked Lesion (mm): 0.0 mm
[6]; [29]
  Fungal Sporulation (mm): 2.4 mm
  Water soaked Lesion (mm): 1.5 mm
[6]; [31]
  Fungal Sporulation (mm): 1.8 mm
  Water soaked Lesion (mm): 0.0 mm
[6]; [32]
  Fungal Sporulation (mm): 2.0 mm
  Water soaked Lesion (mm): 0.0 mm
[6]; [33]
  Fungal Sporulation (mm): 2.1 mm
  Water soaked Lesion (mm): 0.0 mm
